Laboratory results as given in patent US20250101378A1, “CULTURE MEDIUM AND CULTURE METHOD FOR MAMMARY EPITHELIAL CELLS, AND USE OF MAMMARY EPITHELIAL CELLS” (PRECEDO PHARMACEUTICALS CO., LTD, priority 2022, published 2025).

What was measured:
Type in all cases: cell-based, human
breast tumor cells (5 #) = assay: In vitro drug sensitivity test, Cell Titer-Glo cell viability; details: 72 hours after drug administration, 1:3 dilution series from 2 times Cmax
Method: I. Plating of primary breast cancer cells: using the culture medium of the invention in section (5) of Example 1, breast tumor cells (5 #) were cultured by the method described in section (1) of Example 2, and the cells were inoculated in a 384-well plate at a density of 3000 to 5000 cells/well, and the cells were subjected to adherent culture overnight.
(1) The drug storage plate was prepared by the concentration gradient dilution method: 10 μL of the drug stock solutions to be tested (the concentration of the drug stock solution was prepared at 2 times the maximum plasma concentration Cmax of the drug in the human body) were respectively taken and added to a 0.5 mL EP tube containing 20 μL of DMSO, and then 10 μL was aspirated from the above EP tube into a second 0.5 mL EP tube containing 20 μL of DMSO, that is, the drug was diluted 1:3. The above process was repeated for gradually dilution until 8 or 9 concentrations required for dosing were obtained. Different concentrations of drugs were added to the 384-well drug storage plate. Equal volume of DMSO was added to each well of the solvent control group as a control. In this example, the drugs to be tested are clinically approved anti-tumor drugs, docetaxel (MCE), palbociclib (MCE), dovitinib (MCE), capecitabine (MCE), crizotinib (MCE) and etoposide (MCE).
(2) Using a high-throughput automated workstation (purchased from Perkin Elmer), different concentrations of drugs and solvent controls in the 384-well drug storage plates were added to the 384-well cell culture plates plated with the breast tumor cells. Both the drug groups and the solvent control groups were set up with 3 replicate wells. The volume of drug added to each well was 100 nL.
(3) Cell activity detection: 72 hours after drug administration, Cell Titer-Glo assay kit (manufactured by Promega) was used to detect the chemiluminescence value of the cultured cells after drug administration. The magnitude of the chemiluminescence value reflects the cell viability and the effect of the drug on the cell viability. The prepared Cell Titer-Glo detection solution was added to each well, and a microplate reader was used to detect the chemiluminescence value after mixing.
Graphpad Prism 7.0 software was used to draw graphs and calculate the median inhibition concentration IC50.

[1] = tested on: primary breast cancer cells isolated from breast tumor tissue; assay: Screening of additive factors in the culture medium of primary mammary epithelial cells (cell count after 14 days); set-up: key to Level of promoting proliferation: +: compared with the Basal Medium, the culture medium added with the additive(s) has the effect of promoting the proliferation of at least three cases of primary breast cancer cells isolated from breast tumor tissue; ++: the number of “+” indicates the degree of proliferation promotion; ++++: the number of “+” indicates the degree of proliferation promotion; −: the culture medium added with the additive(s) has the effect of inhibiting the proliferation of at least two cases of primary breast cancer cells isolated from breast tumor tissue; the culture medium added with the additive(s) has no significant effect on the proliferation of at least three cases of primary breast cancer cells isolated from breast tumor tissue; details: 14 days of culture; for Level of promoting proliferation: additive added to Basal Medium at the concentration of Table 1, cell count compared with Basal Medium, five breast tumor samples; for promotion of growth of primary breast tumor cells (in words): additive added to Basal Medium, compared with Basal Medium
Method: First, a basal culture medium based on WO 2021/088119 was prepared. To a commercially available DMEM/F-12 culture medium, GlutaMAX-I (manufactured by Thermo Fisher Scientific) was added at the concentration specified in the instruction manual (1:100 dilution), human insulin (Sigma) was added at a final concentration of 10 μg/ml, ROCK inhibitor Y27632 (Sigma) was added at a final concentration of 10 μM, penicillin-streptomycin (Thermo Fisher Scientific) was added at a 1:100 dilution, human amphiregulin (manufactured by R&D systems) was added at a final concentration of 20 ng/ml, epidermal growth factor (EGF, manufactured by Peprotech) was added at a final concentration of 10 ng/ml, B27 (Thermo Fisher Scientific) was added at a 1:50 dilution, human neuregulin 1 (Peprotech) was added at a final concentration of 10 nM, fibroblast growth factor 7 (FGF7, R&D systems) was added at a final concentration of 10 ng/ml), and TGFβ1 inhibitor A8301 (manufactured by MCE) was added at a final concentration of 500 nM, to prepare a basal culture medium for primary mammary epithelial cells, hereinafter referred to as “Basal Medium”.
Then, different types of additives (Table 1) were added to the Basal Medium to prepare culture mediums for mammary epithelial cells containing different additives. The culture medium with different components was added to a 24-well plate coated with extracellular matrix gel at a volume of 500 μl/well, and 3 replicates were prepared for each culture medium formulation. The breast cancer cells (1 #) isolated from the breast tumor tissue in Example (1) were inoculated at a cell density of 3×10^4 cells/well in a 24-well culture plate coated with extracellular matrix gel, and cultured at 37° C. and 5% CO2 concentration using different culture medium formulations, respectively. The culture medium was replaced every 3 days after the start of culture. After 14 days of culture, the cells were counted. Basal Medium without addition of any additive shown in Table 1 was used as an experimental control.
The tumor cells isolated from the rest four cases of breast tumor tissue samples were also cultured and counted in the same manner as above.

[2] = tested on: primary breast cancer cells (2 #); assay: Optimization of the concentration of additives in the culture medium (cell count on day 14, FIGS. 1A-1G); details: graded concentrations added to Formulations 1-7, 96-well plate, day 14 cell count
Method: The following 7 different formulations of culture mediums were further prepared: • Formulation 1: the Basal Medium was added with 1:100-fold diluted MEM-NEAA, 1 mM sodium pyruvate, 50 ng/ml IGF1, 20 ng/ml bFGF, 10 ng/ml TNF-α and 20 ng/ml FGF10; • Formulation 2: the Basal Medium was added with 10 nM β-estradiol, 1 mM sodium pyruvate, 50 ng/ml IGF1, 20 ng/ml bFGF, 10 ng/ml TNF-α and 20 ng/ml of FGF10; • Formulation 3: the Basal Medium was added with 10 nM β-estradiol, 1:100-fold diluted MEM-NEAA, 50 ng/ml IGF1, 20 ng/ml bFGF, and 10 ng/ml TNF-α and 20 ng/ml FGF10; • Formulation 4: the Basal Medium was added with 10 nM β-estradiol, 1:100-fold diluted MEM-NEAA, 1 mM sodium pyruvate, 20 ng/ml bFGF, and 10 ng/ml TNF-α and 20 ng/ml FGF10; • Formulation 5: the Basal Medium was added with 10 nM β-estradiol, 1:100-fold diluted MEM-NEAA, 1 mM sodium pyruvate, 50 ng/ml IGF1, and 10 ng/ml TNF-α and FGF10 at 20 ng/ml; • Formulation 6: the Basal Medium was added with 10 nM β-estradiol, 1:100-fold diluted MEM-NEAA, 1 mM sodium pyruvate, 50 ng/ml IGF1, 20 ng/ml bFGF and 20 ng/ml FGF10; • Formulation 7: the Basal Medium was added with 10 nM β-estradiol, 1:100-fold diluted MEM-NEAA, 1 mM sodium pyruvate, 50 ng/ml IGF1, 20 ng/ml bFGF and 10 ng/ml of TNF-α.
Subsequently, β-estradiol (Sigma) was added to Formulation 1 to prepare culture mediums for human mammary epithelial cells containing β-estradiol at final concentrations of 5 nM, 10 nM, 50 nM, and 100 nM, and each culture medium was added to a 96-well plate coated with Matrigel at a volume of 100 μl/well, with 3 replicates for each concentration. The primary breast cancer cells (2 #) isolated from breast tumor tissue in Example (1) were seeded in a Matrigel-coated 96-well culture plate at a density of 500 cells/well and cultured in Formulation 1 containing different concentrations of β-estradiol at 37° C. and 5% CO2. The culture medium was replaced every 3 days after the start of culture. On the 14th day of culture, the cells were counted. Formulation 1 was used as an experimental control, i.e., the content of β-estradiol was 0 nM.
Non-essential amino acids (MEM-NEAA) additive (Thermo Fisher) was added to Formulation 2 at a dilution ratio of 1:200, 1:100, 1:50, and 1:20 to prepare culture mediums for human mammary epithelial cells containing different concentrations of non-essential amino acids. The culture mediums of different formulations were added to a 96-well plate coated with Matrigel at a volume of 100 μl/well, with 3 replicates for each concentration. Primary cells were cultured and counted in the same manner as above. As an experimental control, Formulation 2 was used, i.e., the content of non-essential amino acids was 0.
Similarly, sodium pyruvate (Thermo Fisher) was added to Formulation 3 to prepare culture mediums for human mammary epithelial cells containing sodium pyruvate at final concentrations of 0.5 mM, 1 mM, 2 mM, and 4 mM. […] Primary cells were cultured and counted in the same manner as above. […]
Then, insulin-like growth factor 1 (IGF1, manufactured by R&D) was added to formulation 4 to prepare culture mediums for human mammary epithelial cells containing IGF1 at final concentrations of 10 ng/ml, 20 ng/ml, 50 ng/ml, 100 ng/ml, and 200 ng/ml, and the culture mediums containing different concentrations of IGF1 were added to a 96-well plate coated with Matrigel at a volume of 100 μl/well, with 3 replicates for each concentration. Primary cells were cultured and counted in the same manner as above. […]

Molecule | sensitivity of breast cancer cells to drug (in words) (breast tumor cells (5 #)) | Level of promoting proliferation [1] | effect on in vitro proliferation of primary breast cancer cells (in words) [2] | promotion of growth of primary breast tumor cells (in words) [1]
CCCCCOC(=O)Nc1nc(=O)n([C@@H]2O[C@H](C)[C@@H](O)[C@H]2O)cc1F [capecitabine] | less sensitive | – | – | –
C[C@@H](Oc1cc(-c2cnn(C3CCNCC3)c2)cnc1N)c1c(Cl)ccc(F)c1Cl [crizotinib] | less sensitive | – | – | –
CC(=O)O[C@@]12CO[C@@H]1C[C@H](O)[C@@]1(C)C(=O)[C@H](O)C3=C(C)[C@@H](OC(=O)[C@H](O)[C@@H](NC(=O)OC(C)(C)C)c4ccccc4)C[C@@](O)([C@@H](OC(=O)c4ccccc4)[C@H]21)C3(C)C [docetaxel] | more sensitive | – | – | –
COc1cc([C@@H]2c3cc4c(cc3[C@@H](O[C@@H]3O[C@@H]5CO[C@@H](C)O[C@H]5[C@H](O)[C@H]3O)[C@H]3COC(=O)[C@H]23)OCO4)cc(OC)c1O [etoposide] | more sensitive | – | – | –
CC(=O)C(=O)[O-].[Na+] [sodium pyruvate] | – | ∘ | – | –
C[C@]12CC[C@@H]3c4ccc(O)cc4CC[C@H]3[C@@H]1CC[C@@H]2O [β-estradiol] | – | ∘ | obvious proliferative effects | –
basic fibroblast growth factor | – | ++ | obvious proliferative effects | stronger
insulin-like growth factor 1 | – | + | obvious proliferative effects | promote the growth
tumor necrosis factor α | – | ++ | obvious proliferative effects | stronger
fibroblast growth factor 10 (protein, UniProt O15520 38-208, looked up, growth factor used as culture medium additive) Fibroblast growth factor 10: QALGQDMVSPEATNSSSSSFSSPSSAGRHVRSYNHLQGDVRWRKLFSFTKYFLKIEKNGKVSGTKKENCPYSILEITSVEIGVVAVKAINSNYYLAMNKKGKLYGSKEFNNDCKLKERIEENGYNTYASFNWQHNGRQMYVALNGKGAPRRGQKTRRKNTSAHFLPMVVHS | – | + | dose-dependent pro-proliferation effect | promote the growth
